The results in this text go back to publication PMC12171764 (Computational and Structural Biotechnology Journal, 2025).

The target of one test is T1, PhGal4E_1 (Pyrococcus horikoshii, UniProt O73960).
T1 sequence (O73960 1-318): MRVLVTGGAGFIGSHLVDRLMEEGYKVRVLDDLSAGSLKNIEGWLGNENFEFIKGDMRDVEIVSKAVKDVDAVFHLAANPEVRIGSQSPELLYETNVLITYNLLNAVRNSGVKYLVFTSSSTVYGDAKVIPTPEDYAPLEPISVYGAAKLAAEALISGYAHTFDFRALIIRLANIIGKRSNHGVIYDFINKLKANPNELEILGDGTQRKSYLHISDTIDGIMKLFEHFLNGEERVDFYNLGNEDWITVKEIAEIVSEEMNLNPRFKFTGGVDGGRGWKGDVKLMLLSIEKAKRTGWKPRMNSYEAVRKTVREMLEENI
The test is described as follows: X-ray crystal structure, […] Å, crystal soaking. It counts as binding. As to conditions: soaked 1-3 min with 10 mM GDP-L-Fuc; active site, NAD+ bound.

Test [1] addresses PhGal4E_1 variant Y145F (Pyrococcus horikoshii). The test is described as follows: crystal structure.

For the molecule `C[C@@H]1O[C@H](OP(=O)(O)OP(=O)(O)OC[C@H]2O[C@@H](n3cnc4c(=O)[nH]c(N)nc43)[C@H](O)[C@@H]2O)[C@@H](O)[C@H](O)[C@@H]1O` [GDP-L-Fuc], the “X-ray crystal structure, 2.4 Å, crystal soaking” value at PhGal4E_1 is “NAD^+ cofactor and GDP-L-Fuc bound in the active site of the WT (PDB ID: 8RDH”.

As a reminder, the stoichiometry N is the number of molecules, sites or subunits per partner or assembly. For PhGal4E_1 variant Y145F (enzyme), in test [1], the stoichiometry N was determined as 2.
